Measurements: ChEMBL document CHEMBL3045835, “Comparative study of conventional and microwave-assisted synthesis of some Schiff bases and their potential as antimicrobial agents” (2012)
Converted amounts (≈) assume the structure as drawn.

Key:
Format in all cases: functional
Bacillus pumilus [1] = test: Antibacterial activity against Bacillus pumilus MTCC 1456 at 1000 ug/ml after 18 hr by cup-plate method; conditions: MTCC 1456, 18 h, read-out: DIZ
Pseudomonas aeruginosa [2] = test: Antibacterial activity against Pseudomonas aeruginosa MTCC 424 at 1500 ug/ml after 18 hr by cup-plate method; conditions: MTCC 424, 18 h, read-out: DIZ
Bacillus pumilus [3] = test: Antibacterial activity against Bacillus pumilus MTCC 1456 after 24 hr by broth dilution method; conditions: MTCC 1456, 24 h
Staphylococcus aureus [4] = test: Antibacterial activity against Staphylococcus aureus MTCC 1430 at 1500 ug/ml after 18 hr by cup-plate method; conditions: MTCC 1430, 18 h, read-out: DIZ
Staphylococcus aureus [5] = test: Antibacterial activity against Staphylococcus aureus MTCC 1430 at 200 ug/ml after 18 hr by cup-plate method; conditions: MTCC 1430, 18 h, read-out: DIZ
Pseudomonas fluorescens [6] = test: Antibacterial activity against Pseudomonas fluorescens MTCC 2421 at 1500 ug/ml after 18 hr by cup-plate method; conditions: MTCC 2421, 18 h, read-out: DIZ
Micrococcus luteus [7] = test: Antibacterial activity against Micrococcus luteus MTCC 1538 after 24 hr by broth dilution method; conditions: MTCC 1538, 24 h
Pseudomonas fluorescens [8] = test: Antibacterial activity against Pseudomonas fluorescens MTCC 2421 at 500 ug/ml after 18 hr by cup-plate method; conditions: MTCC 2421, 18 h, read-out: DIZ
Bacillus subtilis [9] = test: Antibacterial activity against Bacillus subtilis MTCC 441 at 1500 ug/ml after 18 hr by cup plate method; conditions: MTCC 441, 18 h, read-out: DIZ
Pseudomonas aeruginosa [10] = test: Antibacterial activity against Pseudomonas aeruginosa MTCC 424 at 1000 ug/ml after 18 hr by cup-plate method; conditions: MTCC 424, 18 h, read-out: DIZ
Micrococcus luteus [11] = test: Antibacterial activity against Micrococcus luteus MTCC 1538 at 200 ug/ml after 18 hr by cup-plate method; conditions: MTCC 1538, 18 h, read-out: DIZ
Aspergillus niger [12] = test: Antifungal activity against Aspergillus niger MTCC 2546 at 500 ug/ml after 18 hr by cup-plate method; conditions: MTCC 2546, 18 h, read-out: DIZ
Staphylococcus aureus [13] = test: Antibacterial activity against Staphylococcus aureus MTCC 1430 at 100 ug/ml after 18 hr by cup-plate method; conditions: MTCC 1430, 18 h, read-out: DIZ
Penicillium chrysogenum [14] = test: Antifungal activity against Penicillium chrysogenum MTCC 161 after 24 hr by broth dilution method; conditions: MTCC 161, 24 h
Micrococcus luteus [15] = test: Antibacterial activity against Micrococcus luteus MTCC 1538 at 1000 ug/ml after 18 hr by cup-plate method; conditions: MTCC 1538, 18 h, read-out: DIZ
Pseudomonas fluorescens [16] = test: Antibacterial activity against Pseudomonas fluorescens MTCC 2421 at 100 ug/ml after 18 hr by cup-plate method; conditions: MTCC 2421, 18 h, read-out: DIZ
Bacillus subtilis [17] = test: Antibacterial activity against Bacillus subtilis MTCC 441 at 1000 ug/ml after 18 hr by cup plate method; conditions: MTCC 441, 18 h, read-out: DIZ
Pseudomonas fluorescens [18] = test: Antibacterial activity against Pseudomonas fluorescens MTCC 2421 after 24 hr by broth dilution method; conditions: MTCC 2421, 24 h
Pseudomonas aeruginosa [19] = test: Antibacterial activity against Pseudomonas aeruginosa MTCC 424 after 24 hr by broth dilution method; conditions: MTCC 424, 24 h
Penicillium chrysogenum [20] = test: Antifungal activity against Penicillium chrysogenum MTCC 161 at 500 ug/ml after 18 hr by cup-plate method; conditions: MTCC 161, 18 h, read-out: DIZ
Micrococcus luteus [21] = test: Antibacterial activity against Micrococcus luteus MTCC 1538 at 500 ug/ml after 18 hr by cup-plate method; conditions: MTCC 1538, 18 h, read-out: DIZ
Staphylococcus aureus [22] = test: Antibacterial activity against Staphylococcus aureus MTCC 1430 at 1000 ug/ml after 18 hr by cup-plate method; conditions: MTCC 1430, 18 h, read-out: DIZ
Escherichia coli [23] = test: Antibacterial activity against Escherichia coli MTCC 1573 at 1500 ug/ml after 18 hr by cup-plate method; conditions: MTCC 1573, 18 h, read-out: DIZ
Bacillus pumilus [24] = test: Antibacterial activity against Bacillus pumilus MTCC 1456 at 1500 ug/ml after 18 hr by cup-plate method; conditions: MTCC 1456, 18 h, read-out: DIZ
Bacillus subtilis [25] = test: Antibacterial activity against Bacillus subtilis MTCC 441 after 24 hr by broth dilution method; conditions: MTCC 441, 24 h
Micrococcus luteus [26] = test: Antibacterial activity against Micrococcus luteus MTCC 1538 at 100 ug/ml after 18 hr by cup-plate method; conditions: MTCC 1538, 18 h, read-out: DIZ
Pseudomonas fluorescens [27] = test: Antibacterial activity against Pseudomonas fluorescens MTCC 2421 at 200 ug/ml after 18 hr by cup-plate method; conditions: MTCC 2421, 18 h, read-out: DIZ
Aspergillus niger [28] = test: Antifungal activity against Aspergillus niger MTCC 2546 at 1000 ug/ml after 18 hr by cup-plate method; conditions: MTCC 2546, 18 h, read-out: DIZ
Escherichia coli [29] = test: Antibacterial activity against Escherichia coli MTCC 1573 after 24 hr by broth dilution method; conditions: MTCC 1573, 24 h
Penicillium chrysogenum [30] = test: Antifungal activity against Penicillium chrysogenum MTCC 161 at 1500 ug/ml after 18 hr by cup-plate method; conditions: MTCC 161, 18 h, read-out: DIZ
Micrococcus luteus [31] = test: Antibacterial activity against Micrococcus luteus MTCC 1538 at 1500 ug/ml after 18 hr by cup-plate method; conditions: MTCC 1538, 18 h, read-out: DIZ
Aspergillus niger [32] = test: Antifungal activity against Aspergillus niger MTCC 2546 after 24 hr by broth dilution method; conditions: MTCC 2546, 24 h
Pseudomonas fluorescens [33] = test: Antibacterial activity against Pseudomonas fluorescens MTCC 2421 at 1000 ug/ml after 18 hr by cup-plate method; conditions: MTCC 2421, 18 h, read-out: DIZ
Escherichia coli [34] = test: Antibacterial activity against Escherichia coli MTCC 1573 at 1000 ug/ml after 18 hr by cup-plate method; conditions: MTCC 1573, 18 h, read-out: DIZ
Staphylococcus aureus [35] = test: Antibacterial activity against Staphylococcus aureus MTCC 1430 after 24 hr by broth dilution method; conditions: MTCC 1430, 24 h
Penicillium chrysogenum [36] = test: Antifungal activity against Penicillium chrysogenum MTCC 161 at 1000 ug/ml after 18 hr by cup-plate method; conditions: MTCC 161, 18 h, read-out: DIZ
Aspergillus niger [37] = test: Antifungal activity against Aspergillus niger MTCC 2546 at 1500 ug/ml after 18 hr by cup-plate method; conditions: MTCC 2546, 18 h, read-out: DIZ
Staphylococcus aureus [38] = test: Antibacterial activity against Staphylococcus aureus MTCC 1430 at 500 ug/ml after 18 hr by cup-plate method; conditions: MTCC 1430, 18 h, read-out: DIZ
Escherichia coli [39] = test: Antibacterial activity against Escherichia coli MTCC 1573 at 500 ug/ml after 18 hr by cup-plate method; conditions: MTCC 1573, 18 h, read-out: DIZ

SMILES | zone of inhibition at 1500 µg/mL (Pseudomonas aeruginosa [2]) [mm] | MIC (Bacillus pumilus [3]) [µg/mL] | zone of inhibition at 1500 µg/mL (Staphylococcus aureus [4]) [mm] | zone of inhibition at 200 µg/mL (Staphylococcus aureus [5]) [mm] | zone of inhibition at 1500 µg/mL (Pseudomonas fluorescens [6]) [mm] | MIC (Micrococcus luteus [7]) [µg/mL] | zone of inhibition at 500 µg/mL (Pseudomonas fluorescens [8]) [mm] | zone of inhibition at 200 µg/mL (Micrococcus luteus [11]) [mm] | zone of inhibition at 500 µg/mL (Aspergillus niger [12]) [mm] | zone of inhibition at 100 µg/mL (Staphylococcus aureus [13]) [mm] | MIC (Penicillium chrysogenum [14]) [µg/mL] | zone of inhibition at 1000 µg/mL (Micrococcus luteus [15]) [mm] | zone of inhibition at 100 µg/mL (Pseudomonas fluorescens [16]) [mm] | MIC (Pseudomonas fluorescens [18]) [µg/mL] | MIC (Pseudomonas aeruginosa [19]) [µg/mL] | zone of inhibition at 500 µg/mL (Penicillium chrysogenum [20]) [mm] | zone of inhibition at 500 µg/mL (Micrococcus luteus [21]) [mm] | zone of inhibition at 1000 µg/mL (Staphylococcus aureus [22]) [mm] | zone of inhibition at 1500 µg/mL (Escherichia coli [23]) [mm] | MIC (Bacillus subtilis [25]) [µg/mL] | also measured
Clc1ccc(/N=C\c2cccc3ccccc23)cc1 | 14 | 500 (≈ 1880 µM) | 21 | 13 | 19 | 300 (≈ 1130 µM) | 14 | 16 | 11 | 11 | 500 (≈ 1880 µM) | 21 | 11 | 300 (≈ 1130 µM) | 500 (≈ 1880 µM) | 11 | 19 | 18 | 17 | 500 (≈ 1880 µM) | zone of inhibition at 1000 µg/mL (Bacillus pumilus [1]): 9 mm; zone of inhibition at 1500 µg/mL (Bacillus subtilis [9]): 17 mm; zone of inhibition at 1000 µg/mL (Pseudomonas aeruginosa [10]): 13 mm; zone of inhibition at 1000 µg/mL (Bacillus subtilis [17]): 15 mm; zone of inhibition at 1500 µg/mL (Bacillus pumilus [24]): 10 mm; zone of inhibition at 100 µg/mL (Micrococcus luteus [26]): 13 mm; zone of inhibition at 200 µg/mL (Pseudomonas fluorescens [27]): 12 mm; zone of inhibition at 1000 µg/mL (Aspergillus niger [28]): 13 mm; MIC (Escherichia coli [29]): 500 µg/mL (≈ 1880 µM); zone of inhibition at 1500 µg/mL (Penicillium chrysogenum [30]): 14 mm; zone of inhibition at 1500 µg/mL (Micrococcus luteus [31]): 25 mm; MIC (Aspergillus niger [32]): 500 µg/mL (≈ 1880 µM); zone of inhibition at 1000 µg/mL (Pseudomonas fluorescens [33]): 17 mm; zone of inhibition at 1000 µg/mL (Escherichia coli [34]): 11 mm; MIC (Staphylococcus aureus [35]): 400 µg/mL (≈ 1510 µM); zone of inhibition at 1000 µg/mL (Penicillium chrysogenum [36]): 13 mm; zone of inhibition at 1500 µg/mL (Aspergillus niger [37]): 15 mm; zone of inhibition at 500 µg/mL (Staphylococcus aureus [38]): 15 mm
C(=N\c1ccccn1)/c1cccc2ccccc12 | 15 | 500 (≈ 2150 µM) | 20 | 12 | 19 | 400 (≈ 1720 µM) | 15 | 12 | 12 | 11 | 500 (≈ 2150 µM) | 20 | 11 | 300 (≈ 1290 µM) | 500 (≈ 2150 µM) | 10 | 17 | 16 | 16 | 500 (≈ 2150 µM) | zone of inhibition at 500 µg/mL (Escherichia coli [39]): 11 mm; zone of inhibition at 100 µg/mL (Micrococcus luteus [26]): 11 mm; zone of inhibition at 200 µg/mL (Pseudomonas fluorescens [27]): 13 mm; zone of inhibition at 1000 µg/mL (Aspergillus niger [28]): 13 mm; MIC (Escherichia coli [29]): 400 µg/mL (≈ 1720 µM); zone of inhibition at 1500 µg/mL (Penicillium chrysogenum [30]): 17 mm; zone of inhibition at 1500 µg/mL (Micrococcus luteus [31]): 24 mm; MIC (Aspergillus niger [32]): 500 µg/mL (≈ 2150 µM); zone of inhibition at 1000 µg/mL (Pseudomonas fluorescens [33]): 17 mm; zone of inhibition at 1000 µg/mL (Escherichia coli [34]): 14 mm; MIC (Staphylococcus aureus [35]): 400 µg/mL (≈ 1720 µM); zone of inhibition at 1000 µg/mL (Penicillium chrysogenum [36]): 12 mm; zone of inhibition at 1500 µg/mL (Aspergillus niger [37]): 15 mm; zone of inhibition at 500 µg/mL (Staphylococcus aureus [38]): 14 mm
